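Five concentrations, 48 hours, 96-well plates. TGI: concentration producing complete growth inhibition.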
Columns and labels:
Experiment in all cases: NCI tumour cell line growth inhibition, 48 h
A549 NSCLC = tested on: A549 NSCLC
ACHN renal = tested on: ACHN renal
CAKI-1 renal = tested on: CAKI-1 renal
CCRF-CEM leukemia = tested on: CCRF-CEM leukemia
COLO 205 colon = tested on: COLO 205 colon
DLD-1 colon = tested on: DLD-1 colon
DMS 114 small cell lung = tested on: DMS 114 small cell lung
DMS 273 small cell lung = tested on: DMS 273 small cell lung
EKVX NSCLC = tested on: EKVX NSCLC
HCC-2998 colon = tested on: HCC-2998 colon
HCT-116 colon = tested on: HCT-116 colon
HCT-15 colon = tested on: HCT-15 colon
HL-60(TB) leukemia = tested on: HL-60(TB) leukemia
HOP-18 NSCLC = tested on: HOP-18 NSCLC
HOP-92 NSCLC = tested on: HOP-92 NSCLC
IGROV1 ovarian = tested on: IGROV1 ovarian
K-562 leukemia = tested on: K-562 leukemia
KM12 colon = tested on: KM12 colon
LOX IMVI melanoma = tested on: LOX IMVI melanoma
LXFL 529 NSCLC = tested on: LXFL 529 NSCLC
M14 melanoma = tested on: M14 melanoma
M19-MEL melanoma = tested on: M19-MEL melanoma
MALME-3M melanoma = tested on: MALME-3M melanoma
MOLT-4 leukemia = tested on: MOLT-4 leukemia
NCI-H226 lung = tested on: NCI-H226 lung
NCI-H23 lung = tested on: NCI-H23 lung
NCI-H460 lung = tested on: NCI-H460 lung
OVCAR-4 ovarian = tested on: OVCAR-4 ovarian
OVCAR-5 ovarian = tested on: OVCAR-5 ovarian
OVCAR-8 ovarian = tested on: OVCAR-8 ovarian
RPMI-8226 leukemia = tested on: RPMI-8226 leukemia
RXF 393 renal = tested on: RXF 393 renal
RXF-631 renal = tested on: RXF-631 renal
SF-268 CNS = tested on: SF-268 CNS
SF-295 CNS = tested on: SF-295 CNS
SF-539 CNS = tested on: SF-539 CNS
SK-MEL-2 melanoma = tested on: SK-MEL-2 melanoma
SK-MEL-28 melanoma = tested on: SK-MEL-28 melanoma
SK-MEL-5 melanoma = tested on: SK-MEL-5 melanoma
SK-OV-3 ovarian = tested on: SK-OV-3 ovarian
SN12C renal = tested on: SN12C renal
SNB-19 CNS = tested on: SNB-19 CNS
SNB-75 CNS = tested on: SNB-75 CNS
SNB-78 CNS = tested on: SNB-78 CNS
SR leukemia = tested on: SR leukemia
SW-620 colon = tested on: SW-620 colon
U251 CNS = tested on: U251 CNS
UACC-257 melanoma = tested on: UACC-257 melanoma
UO-31 renal = tested on: UO-31 renal
XF 498 CNS = tested on: XF 498 CNS
786-0 renal = tested on: 786-0 renal
A498 renal = tested on: A498 renal
HOP-62 NSCLC = tested on: HOP-62 NSCLC
HT29 colon = tested on: HT29 colon
KM20L2 colon = tested on: KM20L2 colon
NCI-H522 lung = tested on: NCI-H522 lung
OVCAR-3 ovarian = tested on: OVCAR-3 ovarian
TK-10 renal = tested on: TK-10 renal

Measured: TGI

O=C=C=P(c1ccccc1)(c1ccccc1)c1ccccc1
75.7 µM: COLO 205 colon
85.1 µM: HOP-92 NSCLC
46.2 µM: SK-MEL-5 melanoma
89.7 µM: XF 498 CNS
83.6 µM: SNB-75 CNS
92.8 µM: OVCAR-5 ovarian
92.4 µM: HL-60(TB) leukemia
> 100 µM: A549 NSCLC | ACHN renal | CAKI-1 renal | CCRF-CEM leukemia | DLD-1 colon | DMS 114 small cell lung | DMS 273 small cell lung | EKVX NSCLC | HCC-2998 colon | HCT-116 colon | HCT-15 colon | HOP-18 NSCLC | IGROV1 ovarian | K-562 leukemia | KM12 colon | LOX IMVI melanoma | LXFL 529 NSCLC | M14 melanoma | M19-MEL melanoma | MALME-3M melanoma | MOLT-4 leukemia | NCI-H226 lung | NCI-H23 lung | NCI-H460 lung | OVCAR-4 ovarian | OVCAR-8 ovarian | RPMI-8226 leukemia | RXF 393 renal | RXF-631 renal | SF-268 CNS | SF-295 CNS | SF-539 CNS | SK-MEL-2 melanoma | SK-MEL-28 melanoma | SK-OV-3 ovarian | SN12C renal | SNB-19 CNS | SNB-78 CNS | SR leukemia | SW-620 colon | U251 CNS | UACC-257 melanoma | UO-31 renal

N#C/C(=C\c1c(O)cc(O)cc1O)C(N)=O
> 100 µM: 786-0 renal | A498 renal | A549 NSCLC | ACHN renal | CAKI-1 renal | CCRF-CEM leukemia | COLO 205 colon | DLD-1 colon | DMS 114 small cell lung | DMS 273 small cell lung | EKVX NSCLC | HCC-2998 colon | HCT-116 colon | HCT-15 colon | HL-60(TB) leukemia | HOP-62 NSCLC | HOP-92 NSCLC | HT29 colon | K-562 leukemia | KM12 colon | KM20L2 colon | LOX IMVI melanoma | LXFL 529 NSCLC | M14 melanoma | MALME-3M melanoma | MOLT-4 leukemia | NCI-H226 lung | NCI-H23 lung | NCI-H460 lung | NCI-H522 lung | OVCAR-3 ovarian | OVCAR-4 ovarian | OVCAR-5 ovarian | OVCAR-8 ovarian | RPMI-8226 leukemia | RXF 393 renal | RXF-631 renal | SF-268 CNS | SF-295 CNS | SF-539 CNS | SK-MEL-2 melanoma | SK-MEL-28 melanoma | SK-MEL-5 melanoma | SK-OV-3 ovarian | SN12C renal | SNB-19 CNS | SNB-75 CNS | SNB-78 CNS | SW-620 colon | TK-10 renal | U251 CNS | UACC-257 melanoma | UO-31 renal | XF 498 CNS
